In US5580881A, “1,2,3,5,6,7,8,8a-Octahydro-5,5,8a-trimethyl- (8aβ)-6-isoquinolineamine derivatives, preparation method therefor and therapeutical use thereof” (Fournier Industrie Et Sante, priority 1992, dated 1996):
Several values for one entry are separate records, joined by “and”; a condition that tells them apart may be missing. Equal entries are not always repeated. Where two headings read alike, the source gives them in different places.

Columns and labels:
[1] = tested on: biosynthesis of hepatic cholesterol (hepatic epoxysqualene cyclase); experiment: Influence on the biosynthesis of hepatic cholesterol in vivo: incorporation of radioactivity in the C27 sterols; settings: oral (gavage), male OF1 mice, relative to control (vehicle) group, 14C-mevalonolactone at 1 h, sacrifice at 2 h
Description: The influence of the molecules on hepatic cholesterogenesis in vivo is tested on male OF1 mice. The animals are conditioned in reverse cycle two weeks before administration of the product.
At T=0 on the day of the experiment, the animals (3 to 6 mice/group) receive by oral administration (gavage) a suspension of the test product in the vehicle (3% gum arabic in water).
At T=1 h, the radioactive precursor (R,S-2-^14 C-mevalonolactone) in a 0.9% aqueous solution of NaCl is injected intraperitoneally [2.5 or 5 μCi/mouse (i.e. 9.25×10^4 Bq or 1.85×10^5 Bq respectively)].
At T=2 h, the animals are sacrificed by dislocation of the cervix; the livers are removed, rinsed, weighed and frozen in liquid nitrogen before being stored at -20° C.
During the conditioning period and on the day of the experiment, the animals have free access to food and drinking water.
The administration of the test product and the injection of the radioactive precursor take place in the middle of the dark period.
After thawing, the whole liver (or part of the liver) is homogenized in water at 0°-4° C. An aliquot of the homogenate is then saponified in alcoholic potassium hydroxide for 90 minutes at 80° C. The unsaponifiable lipids are then extracted with petroleum ether. The solvent is evaporated off to dryness under a stream of nitrogen and the dry residue is redissolved in a chloroform/methanol mixture (2/1). The products contained in the extract are then separated by chromatography on a thin layer of silica after migration in the system hexane/ethyl acetate (80/20).
The deposition of a standard mixture containing non-radioactive cholesterol, lanosterol, monoepoxysqualene, diepoxysqualene and squalene, together with ^14 C-cholesterol, makes it possible to determine the Rf of the compounds which serve as a reference for analysis of the radioactive profile of the unsaponifiable lipids.
The distribution of the radioactivity is analyzed with an automatic linear analyzer. The relative percentage of radioactivity in the C^27 -sterol peak of the control (vehicle) group represents 100% incorporation. Calculation of the influence is based on the ratio of the percentage of radioactivity in the C^27 -sterol peak of the treated group to that of the control group.

[2] = biological target: T1, epoxysqualene cyclase of the hepatic microsomes (Rattus norvegicus, UniProt P48450); experiment: Epoxysqualene cyclase inhibition: lanosterol formed from R,S-2,3-oxidosqualene by rat hepatic microsomes; type: biochemical, male Wistar rats
T1 construct: Rat hepatic microsomes are used as the enzyme source; from tissue; host or cells: liver microsomes of male Wistar rats
T1 sequence (P48450 1-733): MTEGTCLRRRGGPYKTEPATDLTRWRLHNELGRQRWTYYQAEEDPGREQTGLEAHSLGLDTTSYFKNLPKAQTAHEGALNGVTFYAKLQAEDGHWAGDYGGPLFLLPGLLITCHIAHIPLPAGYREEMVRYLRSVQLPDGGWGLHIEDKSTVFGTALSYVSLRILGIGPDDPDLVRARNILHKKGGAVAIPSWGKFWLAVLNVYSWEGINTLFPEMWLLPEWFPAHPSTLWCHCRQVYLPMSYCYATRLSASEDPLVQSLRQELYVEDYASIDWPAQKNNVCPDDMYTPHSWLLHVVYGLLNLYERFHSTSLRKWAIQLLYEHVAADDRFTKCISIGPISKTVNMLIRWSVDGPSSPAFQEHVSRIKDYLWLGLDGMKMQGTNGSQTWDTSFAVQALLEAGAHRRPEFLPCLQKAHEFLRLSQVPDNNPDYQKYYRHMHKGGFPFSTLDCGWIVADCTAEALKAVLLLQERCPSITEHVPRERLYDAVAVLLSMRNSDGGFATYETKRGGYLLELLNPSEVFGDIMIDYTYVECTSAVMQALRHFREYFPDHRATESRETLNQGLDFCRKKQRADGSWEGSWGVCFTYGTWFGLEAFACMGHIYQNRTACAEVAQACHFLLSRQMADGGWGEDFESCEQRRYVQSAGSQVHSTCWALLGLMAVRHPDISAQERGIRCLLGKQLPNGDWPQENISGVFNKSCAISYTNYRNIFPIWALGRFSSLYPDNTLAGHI
Description: The method consists in measuring the lanosterol formed from the R,S-2,3-oxidosqualene by the microsomal enzyme. The enzyme is prepared according to the method described by Ness G. C. (Ness G. C. et al., Biochem. J. (1986), 233,167-172).
Method of Measuring the Epoxysqualene Cyclase Activity
Rat hepatic microsomes are used as the enzyme source. The method consists in measuring the lanosterol formed from the R,S-2,3-oxidosqualene. The R,S-2,3-oxidosqualene, the test products and Tween®80, in the form of organic solutions (2-propanone or sulfinylbismethane) (25 μl ), are placed in test tubes and 400 μl of potassium phosphate buffer (0.1M, pH=7.4) are then added. The reaction is initiated by the addition of 100 μl of microsomes. For a final reaction volume of 525 μl , the mixture contains 150 μM of R,S-2,3-oxidosqualene, 0.1% of Tween®80 (to solubilize the R,S-2,3-oxidosqualene) and 250 μg of microsomal proteins. The reaction time is 60 minutes at 37° C. The reaction is stopped by the addition of 300 μl of methanolic potassium hydroxide (7%) and 20 μg of stigmasterol as an internal standard. After saponification at 80° C. for 30 minutes and stirring with a rotary stirrer, the sterols are extracted with 2 ml of hexane.
The lanosterol formed is separated from the R,S-2,3-oxidosqualene, the membrane cholesterol and the stigmasterol by gas chromatography after conversion to trimethylsilyl ethers. The derivatization of the sterols is carried out at 60° C. for 30 minutes after the addition of 25 μl of pyridine and 75 μl of the trimethylsilyl ester of 2,2,2-trifluoro-N-trimethylsilylethanimidic acid containing 1% of trimethylchlorosilane ethers.
After evaporation, the trimethylsilyl ethers are redissolved in 100 μl of hexane. An aliquot of this solution (2 μl) is chromatographed in the gas phase on an OV1 capillary column (0.32 mm, 25 m) under the following conditions: injector temperature=270° C., oven temperature=260° C., detector temperature=300° C., the carrier gas being nitrogen at a pressure of 7.10^4 Pa.
The potency of the molecules tested is expressed as the percentage inhibition of the amount of lanosterol formed for a concentration of 25.10^-6 mol of test product per liter. The results obtained with a number of compounds according to the invention are collated in Table II.

[3] = 25.10^-6 mol of test product per liter, 60 minutes at 37° C., pH=7.4, rat hepatic microsomes

C=CCN1CC=C2C(C)(C)[C@@H](NC(=O)C(F)(F)F)CC[C@]2(C)C1 (relative stereo) [Example 1, N-Trifluoroacetyl-1,2,3,5,6,7,8,8a-octahydro-2-(2-propen-1-yl)-5,5,8a-trimethyl-(6β,8aβ)-6-isoquinolineamine]
Percentage influence on the incorporation of radioactivity in the C27 sterols ([1]; 50 mg base/kg): -37%

CCCCCCCCCCCCN1CC=C2C(C)(C)[C@@H](NC)CC[C@]2(C)C1 (relative stereo) [Example 12, N-Methyl-1,2,3,5,6,7,8,8a-octahydro-2-dodecyl-5,5,8a-trimethyl-(6β,8aβ)-6-isoquinolineamine ethanedioate]
Percentage inhibition of the amount of lanosterol formed [2, 3]: 65%

C=CCN1CC=C2C(C)(C)[C@@H](NC)CC[C@]2(C)C1 (relative stereo) [Example 13, N-Methyl-1,2,3,5,6,7,8,8a-octahydro-2-(2-propen-1-yl)-5,5,8a-trimethyl-(6β,8aβ)-6-isoquinolineamine ethanedioate]
Percentage inhibition of the amount of lanosterol formed [2]: 63%

CCCCCCCCCCCCN1CC=C2C(C)(C)[C@@H](N)CC[C@]2(C)C1 (relative stereo) [Example 14, 1,2,3,5,6,7,8,8a-Octahydro-2-dodecyl-5,5,8a-trimethyl-(6β,8aβ)-6-isoquinolineamine E-2-butenedioate]
Percentage inhibition of the amount of lanosterol formed [2, 3]: 29%

C=CCN1CC=C2C(C)(C)[C@@H](NC(C)=O)CC[C@]2(C)C1 (relative stereo) [Example 16, N-Acetyl-1,2,3,5,6,7,8,8a-octahydro-2-(2-propen-1-yl)-5,5,8a-trimethyl-(6β,8aβ)-6-isoquinolineamine 4-methylbenzenesulfonate]
Percentage influence on the incorporation of radioactivity in the C27 sterols ([1]; 50 mg base/kg): -14%

CCCCCCCCCCCCN1CC=C2C(C)(C)[C@@H](N(C)C)CC[C@]2(C)C1 (relative stereo) [Example 17, N,N-Dimethyl-1,2,3,5,6,7,8,8a-octahydro-2-dodecyl-5,5,8a-trimethyl-(6β,8aβ)-6-isoquinolineamine (E)-2-butenedioate]
Percentage inhibition of the amount of lanosterol formed [2, 3]: 100%

CCCCCCCCCCCCN1CC=C2C(C)(C)[C@H](N(C)C)CC[C@]2(C)C1 (relative stereo) [Example 18, N,N-Dimethyl-1,2,3,5,6,7,8,8a-octahydro-2-dodecyl-5,5,8a-trimethyl-(6α,8aβ)-6-isoquinolineamine ethanedioate]
Percentage inhibition of the amount of lanosterol formed [2, 3]: 66%

C=CCN1CC=C2C(C)(C)[C@@H](N(C)C)CC[C@]2(C)C1 (relative stereo) [Example 20, N,N-Dimethyl-1,2,3,5,6,7,8,8a-octahydro-2-(2-propen-1-yl)-5,5,8a-trimethyl-(6β,8aβ)-6-isoquinolineamine (E)-2-butenedioate]
Percentage influence on the incorporation of radioactivity in the C27 sterols ([1]; 50 mg base/kg): -21%
Percentage inhibition of the amount of lanosterol formed [2, 3]: 89%

CCCN1CC=C2C(C)(C)[C@@H](N(C)C)CC[C@]2(C)C1 (relative stereo) [Example 21, N,N-Dimethyl-1,2,3,5,6,7,8,8a-octahydro-2-propyl-5,5,8a-trimethyl-(6β,8aβ)-6-isoquinolineamine ethanedioate]
Percentage inhibition of the amount of lanosterol formed [2, 3]: 100%

CN(C)[C@H]1CC[C@]2(C)CN(CC=Cc3ccccc3)CC=C2C1(C)C (relative stereo) [Example 23, N,N-Dimethyl-1,2,3,5,6,7,8,8a-octahydro-2-(3-phenyl-2-propen-1-yl)-5,5,8a-trimethyl-(6β,8aβ)-6-isoquinolineamine 4-methylbenzenesulfonate]
Percentage inhibition of the amount of lanosterol formed [2, 3]: 98%

CN(C)[C@H]1CC[C@]2(C)CN(CC=C(c3ccccc3)c3ccccc3)CC=C2C1(C)C (relative stereo) [Example 24, N,N-Dimethyl-1,2,3,5,6,7,8,8a-octahydro-2-(3,3-diphenyl-2-propen-1-yl)-5,5,8a-trimethyl-(6β,8aβ)-6isoquinolineamine ethanedioate]
Percentage inhibition of the amount of lanosterol formed [2, 3]: 92%

CC1(C)C2=CCN(CC3CO3)C[C@@]2(C)CC[C@@H]1NC(=O)C(F)(F)F (stereo partly drawn) [Example 5, N-Trifluoroacetyl-1,2,3,5,6,7,8,8a-octahydro-2-[1-(2,3-epoxypropyl)]-5,5,8a-trimethyl-(6β,8aβ)-6-isoquinolineamine]
Percentage influence on the incorporation of radioactivity in the C27 sterols ([1]; 50 mg base/kg): -32%

CC1(C)C2=CCN(CC(O)CO)C[C@@]2(C)CC[C@@H]1NC(=O)C(F)(F)F (stereo partly drawn) [Example 6, N-Trifluoroacetyl-1,2,3,5,6,7,8,8a-octahydro-2-[1-(2,3-dihydroxypropyl)]-5,5,8a-trimethyl-(6β,8aβ)-6-isoquinolineamine E-2-butenedioate]
Percentage influence on the incorporation of radioactivity in the C27 sterols ([1]; 100 mg base/kg): -74% and -78%
Percentage inhibition of the amount of lanosterol formed [2, 3]: 62%

CN(C)[C@H]1CC[C@]2(C)CN(CC(O)CO)CC=C2C1(C)C (stereo partly drawn) [Example 22, N,N-Dimethyl-1,2,3,5,6,7,8,8a-octahydro-2-[1-(2,3-dihydroxypropyl)]-5,5,8a-trimethyl-(6β,8aβ)-6-isoquinolineamine]
Percentage inhibition of the amount of lanosterol formed [2, 3]: 64%

CC(Cc1ccc(C(C)C)cc1)CN1CC=C2C(C)(C)[C@@H](N(C)C)CC[C@]2(C)C1 (stereo partly drawn) [Example 25, N,N-Dimethyl-1,2,3,5,6,7,8,8a-octahydro-2-[1-[2-methyl-3-[4-(1-methylethyl)phenyl]propyl]]-5,5,8a-trimethyl-(6β,8aβ)-6-isoquinolineamine (E)-2-butenedioate]
Percentage inhibition of the amount of lanosterol formed [2, 3]: 98%
